Read-outs that look alike come from different tables or passages of the source.
Legend:
[1] = test system: collagen produced by HDF cells; assay: Quantity of collagen produced by the cells (elution of Sirius Red)
HDF cells [2] = assay: Summary of uses and toxic effects deduced from the cell assays (Table 1); assay type: cell-based, Human; conditions: for Anti-fibrotic (prevention of scar formation, also from acne) / Cytoprotective (antioxidant, anti-inflammatory and anti-ageing; useful also in the treatment of acne) / Cytotoxic / Irritant / Wound-healing: 24 hours
Description: Antiradical (skin protective): this is deduced from the free radical scavenger effects.
Revitalizing: this is deduced from the increased mitochondrial dehydrogenase effect.
Cytoprotective, with regard to oxidative damage (antioxidant, anti-inflammatory and anti-ageing): this is deduced from antagonising the stimulation of IL-1β and/or IL-6 induced by 100 µM H2O2 and from the absence of changes in cell morphology similar to the ones due to cell senescence.
Wound healing: this is deduced from the effect of inhibiting the production of IL-1β and by the effect of stimulating cell proliferation under standard growth conditions.
Cytotoxicity: this is deduced from the effect of reducing mitochondrial dehydrogenase activity or from the presence of morphologies characteristic of cell senescence.
Irritation: this is deduced from the effect of increased production of IL-6 and/or IL-1β under standard growth conditions.
Said uses in the fields of medicine and cosmetics or the toxic effects of the substances of the invention at a given dosage, for 24 hours, are summarized in Table 1 below.

interleukin 6 (IL-6) = assay: Inflammatory cytokines in cell supernatant (Mosaic ELISA microarray): IL-6; assay type: cell-based, Human; conditions: for IL-6 ng/(ml* No. of cells from photo) ± SD: 24 hours; for IL-6 production (effect in words): 1-10 µM
Description: (§1) The inflammatory cytokines, CD40 ligand (CD40L), interferon γ (INF-γ), interleukin 1α (IL-1α), interleukin 1β (IL-1β), interleukin 6 (IL-6), interleukin 8 (IL-8), interleukin 17 (IL-17) and tumour necrosis factor α (TNF-α) were determined qualitatively and quantitatively. Each measurement was performed in duplicate using a Mosaic™ ELISA protein microarray assay system from R&D System in accordance with the supplier's instructions. Furthermore, with the aim of obtaining a correlation model between light signal intensity and cytokine concentration, a calibration curve using 6 concentrations was performed for each of them. Analysis of the data was performed using the dedicated Q-View™ Imager software package from Quansys Biosciences

interleukin 1β (IL-1β) = assay: Inflammatory cytokines in cell supernatant (Mosaic ELISA microarray): IL-1β; assay type: cell-based, Human; conditions: for IL-1β ng/(ml* No. of cells from photo) ± SD: 24 hours; for IL-1β production (effect in words): 1-10 µM
Description: as §1

[3] = Anti-radical activity (decay of the DPPH radical); assay type: biochemical; conditions: for Anti-radical (skin protective): 24 hours
Description: With regard to assays aimed at evaluating anti-radical activity, a chemical test was used where the decay of the diphenylpicrylhydrazyl (DPPH) radical is assessed in the absence or in the presence of the test substances. Indeed, the DPPH radical is used to test the ability of substances to act as free radical scavengers. DPPH in solution has a purple colour with a maximum absorbance peak at 517 nm which changes to yellow-colourless when this radical extracts a hydrogen atom from a radical scavenger to give rise to the reduced form DPPH-H. The assay has been conducted in quadruplicate in 96 well microplates (SARSTEDT Tissue Culture Plate 96-well flat bottom cell+). 50 µl of an ethanol solution of the test substance at 2X concentration and then 50 µl of a 200 µM solution of DPPH (MW 168,18, Aldrich 2,2-di(4-tert-octylphenyl)-1-picrylhydrazyl, free radical Lot# MKBF7574V Cat N° 257621-100 mg) have been added to each well of the microplate. A positive control consisting of 0.1 mM vitamin C and a negative control consisting of ethanol alone were included in each microplate. After 30 minutes from the addition of DPPH, photographs of the plates were taken (Canon PowerShot A610 5.0 Mpixels) and read spectrophotometrically at 530 nm.
Based on the analysis of the results reported in Table 9, some substances were selected for further characterisation of their anti-radical activity. For the selected substances, dose-activity curves were obtained and the IC50 value were computed using a non-linear regression model with the Hill equation at variable slope. Such substances had been selected due to both their anti-radical potential and the easiness of their isolation/production. The selection of substances was made in view of cosmetics applications. Moreover their activity on human dermal fibroblasts (HDF) is expected to be useful also for the development of dermatological medications. The selected substances are discussed below.

HDF cells [4] = assay: Evaluation of cell proliferation (counting of Sirius Red stained cells in photographs); conditions: 24 hours
[5] = test system: Human dermal fibroblasts (HDF); assay: Mitochondrial dehydrogenase activity (WST-1 formazan assay) in HDF cells; conditions: for Revitalizing agent: 24 hours; for activity at 1 µM / activity at 10 µM: Homo sapiens, Fibroblast, read-out: % mitochondrial dehydrogenase activity ± SD; for mitochondrial dehydrogenase activity (effect in words): fibroblasts
[6] = Dose 1 µm (coptisine: 1 pm [sic])

c1c2c(cc3c1OCO3)-c1cc3ccc4c(c3c[n+]1CC2)OCO4 [coptisine]
collagen production (effect in words) ([1]; 1-10 µM (1 µM and 10 µM), 34 ng/ml TGF-β1): stimulates collagen production in a dose-dependent manner | collagen production (effect in words) ([1]; 1-10 µM (1 µM and 10 µM), 100 µM H2O2): stimulates collagen production in a dose-dependent manner | collagen production (effect in words) ([1]; 1-10 µM, standard conditions): stimulates collagen production in a dose-dependent manner | Anti-fibrotic (prevention of scar formation, also from acne) (HDF cells [2]; [6]): No | Cytoprotective (antioxidant, anti-inflammatory and anti-ageing; useful also in the treatment of acne) (HDF cells [2]; [6]): No | Cytotoxic (HDF cells [2]; [6]): No | Irritant (HDF cells [2]; [6]): Yes (↑IL-6, ↑IL-1β) | Wound-healing (HDF cells [2]; [6]): No | Anti-fibrotic (prevention of scar formation, also from acne) (HDF cells [2]; Dose 10 µm): No | Cytoprotective (antioxidant, anti-inflammatory and anti-ageing; useful also in the treatment of acne) (HDF cells [2]; Dose 10 µm): No | Cytotoxic (HDF cells [2]; Dose 10 µm): No | Irritant (HDF cells [2]; Dose 10 µm): Yes (↑IL-6, ↑IL-1β) | Wound-healing (HDF cells [2]; Dose 10 µm): No | concentrations at which toxic (irritant) effects are shown (HDF cells [2]; exposure for 24 hours): greater than or equal to 1 µM | IL-6 ng/(ml* No. of cells from photo) ± SD (interleukin 6 (IL-6); 1 µM, 34 ng/ml TGF-β1): 1027±36 ng/(ml* No. of cells from photo) | IL-6 ng/(ml* No. of cells from photo) ± SD (interleukin 6 (IL-6); 1 µM, 100 µM H2O2): 1034±27 ng/(ml* No. of cells from photo) | IL-6 ng/(ml* No. of cells from photo) ± SD (interleukin 6 (IL-6); 1 µM, Standard conditions): 612±31 ng/(ml* No. of cells from photo) | IL-6 ng/(ml* No. of cells from photo) ± SD (interleukin 6 (IL-6); 10 µM, 34 ng/ml TGF-β1): 1244±58 ng/(ml* No. of cells from photo) | IL-6 ng/(ml* No. of cells from photo) ± SD (interleukin 6 (IL-6); 10 µM, 100 µM H2O2): 1710±114 ng/(ml* No. of cells from photo) | IL-6 ng/(ml* No. of cells from photo) ± SD (interleukin 6 (IL-6); 10 µM, Standard conditions): 751±93 ng/(ml* No. of cells from photo) | IL-6 production (effect in words) (interleukin 6 (IL-6); 34 ng/ml TGF-β1): tendency to increase IL-6 production in a dose-dependent manner | IL-6 production (effect in words) (interleukin 6 (IL-6); 100 µM H2O2): tendency to increase IL-6 production in a dose-dependent manner | IL-6 production (effect in words) (interleukin 6 (IL-6); standard conditions): tendency to increase IL-6 production in a dose-dependent manner | IL-1β ng/(ml* No. of cells from photo) ± SD (interleukin 1β (IL-1β); 1 µM, 34 ng/ml TGF-β1): 207±8 ng/(ml* No. of cells from photo) | IL-1β ng/(ml* No. of cells from photo) ± SD (interleukin 1β (IL-1β); 1 µM, 100 µM H2O2): 174±20 ng/(ml* No. of cells from photo) | IL-1β ng/(ml* No. of cells from photo) ± SD (interleukin 1β (IL-1β); 1 µM, Standard conditions): 137±12 ng/(ml* No. of cells from photo) | IL-1β ng/(ml* No. of cells from photo) ± SD (interleukin 1β (IL-1β); 10 µM, 34 ng/ml TGF-β1): 267±15 ng/(ml* No. of cells from photo) | IL-1β ng/(ml* No. of cells from photo) ± SD (interleukin 1β (IL-1β); 10 µM, 100 µM H2O2): 236±8 ng/(ml* No. of cells from photo) | IL-1β ng/(ml* No. of cells from photo) ± SD (interleukin 1β (IL-1β); 10 µM, Standard conditions): 155±7 ng/(ml* No. of cells from photo) | IL-1β production (effect in words) (interleukin 1β (IL-1β); 34 ng/ml TGF-β1): tendency to increase IL-1β production in a dose-dependent manner | IL-1β production (effect in words) (interleukin 1β (IL-1β); 100 µM H2O2): tendency to increase IL-1β production in a dose-dependent manner | IL-1β production (effect in words) (interleukin 1β (IL-1β); standard conditions): tendency to increase IL-1β production in a dose-dependent manner | % DPPH activity ([3]; 1 mM, 30 minutes): 114% | Anti-radical (skin protective) [3, 6]: No | Anti-radical (skin protective) ([3]; Dose 10 µm): No | No. of cells from photo ± SD (HDF cells [4]; 1 µM, 34 ng/ml TGF-β1): 111±18 | No. of cells from photo ± SD (HDF cells [4]; 1 µM, 100 µM H2O2): 143±17 | No. of cells from photo ± SD (HDF cells [4]; 1 µM, Standard conditions): 144±12 | No. of cells from photo ± SD (HDF cells [4]; 10 µM, 34 ng/ml TGF-β1): 86±6 | No. of cells from photo ± SD (HDF cells [4]; 10 µM, 100 µM H2O2): 114±0 | No. of cells from photo ± SD (HDF cells [4]; 10 µM, Standard conditions): 129±27 | concentrations below which no significant effects on mitochondrial dehydrogenase activity are shown [5]: below 1 µM | Revitalizing agent [5, 6]: No | Revitalizing agent ([5]; Dose 10 µm): No | activity at 1 µM ([5]; 24 h): 84.5 ± 3.17% | activity at 10 µM ([5]; 24 h): 62.3 ± 11.8% | activity at 1 µM ([5]; 42 h): 90.1 ± 2.3% | activity at 10 µM ([5]; 42 h): 139 ± 5.34% | mitochondrial dehydrogenase activity (effect in words) ([5]; low dose for a prolonged period of time, to a lesser extent): stimulatory effects | mitochondrial dehydrogenase activity (effect in words) ([5]; overall): mostly inhibitory effects
